What was measured:
EGFP–LIMK2 = target: T1, EGFP–LIMK2 (Homo sapiens, UniProt P53671); test: EGFP-LIMK2 depletion live-cell assay (Incucyte); assay type: cell-based
T1 construct: P2A remnant (from EGFP-LIMK2-P2A-mCherry; that residues stay on LIMK2 after self-cleavage is own knowledge) (C); expressed in transfected cells; host or cells: HuCCT1 (lentiviral transduction, doxycycline-inducible pCW57 vector)
Experimental: To enable a more comprehensive and rapid evaluation of the synthesized PROTACs, we generated a stable, doxycycline-inducible HuCCT1 cell line that expressed an N-terminally fused EGFP–LIMK2 protein. […] The degradation activity of the synthesized PROTACs set was screened at five concentrations ranging from 1 nM to 1000 nM over 72 h using live-cell imaging (Figure E).
LIMK2 was cloned into pcDNA5-EGFP-NLS-P2A-mCherry-PTS1 (Addgene plasmid #87803) by replacing the NLS sequence with the LIMK2 sequence. pcDNA5-EGFP-NLS-P2A-mCherry-PTS1 was a gift from Andrea Musacchio. Subsequently, EGFP-[…]-P2A-mCherry was cloned into the lentiviral vector pCW57-MCS1-P2A-MCS2 (Hygro) (Addgene plasmid #80922) to generate pCW57-HygB-EGFP-LIMK2-P2A-mCherry. pCW57-MCS1-P2A-MCS2 (Hygro) was a gift from Adam Karpf.
HEK293T cells (ATCC, CRL-3216) were cultured in Dulbecco’s Modified Eagle’s Medium (DMEM), while HUCCT1 cells (ATCC, CRL-1997) were cultured in RPMI medium supplemented with 10% fetal bovine serum (FBS) and 1% penicillin/streptomycin (P/S) antibiotic mix (all from Sigma-Aldrich, St. Louis, Missouri, USA). Lentiviral particles were produced in HEK293T cells using pCW57-HygB-EGFP-LIMK2-[…]P2A-mCherry, pMD2.G, and psPAX2. HUCCT1 cells were transduced with lentivirus to express LIMK2.
Briefly, the cells were plated and propagated in 6-well plates overnight. The next day, transduction with viruses was performed. Two days later, transduced cells with pCW57-HygB-EGFP-LIMK2-P2A-mCherry plasmids were selected using 100 μg/mL Hygromycin B. After at least three passages, the cells were sorted for the same populations of RFP- and GFP-expressing cells using the SH800S Cell Sorter (Sony Biotechnology, San Jose, CA, USA). Stable pools of cells were maintained in the same medium used for selection.
To assess the turnover of LIMK2, we used the Incucyte S3 or XS5 live-cell imaging system and performed the assay as previously described. , Briefly, 2,000 HUCCT1 cells stably expressing EGFP-LIMK2-P2A-mCherry were seeded per well in a 384-well plate in 50 μL of RPMI medium supplemented with 10% fetal bovine serum (FBS) and 1% penicillin/streptomycin. Cells were incubated for 24 h before treatment. To induce LIMK2 expression, 1 μg/mL of doxycycline (Sigma-Aldrich, D9891–1G) was added at the time of seeding.
After 24 h, 50 μL of medium containing either 0.1% DMSO or the desired concentration of PROTACs was added. Fluorescence in three channels–GFP, RFP, and phase contrast (cell confluence)–was monitored every 2 h for 72 h using the Incucyte S3 or XS5 (Sartorius, Germany). LIMK2 turnover was quantified by calculating the ratio of total fluorescence intensity of RFP to GFP. Each time point represents the average ratio from three technical replicates.

phospho-Cofilin (pCFL) = test: Western blot of phospho-cofilin in HuCCT1 cells; assay type: cell-based, human; conditions: HuCCT1, 6 h
Experimental: HuCCT1 cell line was cultured in Roswell Park Memorial Institute (RPMI) 1640 medium supplemented with GlutaMAX, 10% fetal bovine serum (FBS), and 1% penicillin/streptomycin. The cell line was maintained in an incubator with 5% CO2 at 37 °C. For the treatment, 3 × 10^5 cells were plated and treated with the compounds and DMSO as the control for 6 h. The cells were then lysed using RIPA buffer (50 mM Tris-HCl pH 7.4, 150 mM NaCl, 1% Triton X-100, 1% NaDOC, 0.1% SDS, 1 mM EDTA), freshly supplemented with protease and phosphatase inhibitor cocktails (Sigma-Aldrich, Darmstadt, Germany). After 1 h incubation on ice, the lysates were centrifuged for 30 min at […], and the protein-containing supernatant was collected. The protein concentrations were determined using Protein Assay Dye Reagent Concentrate (Bradford, Bio-Rad, Hercules, CA, USA) and Pre-Diluted Protein Assay Standards: Bovine Serum Albumin (BSA) Set (Thermo Fisher Scientific, Darmstadt, Germany). Then, equal amounts of protein was mixed with Roti-Load 1 dye (Carl Roth, Karlsruhe, Germany) and 4x Laemmli Buffer (Bio-Rad, Hercules, CA, USA), denatured at 95 °C, and run on NuPAGE 4–12% bis-Tris gels (Thermo Fisher Scientific). Proteins were blotted on methanol-activated PVDF Transfer Membranes (Thermo Fisher Scientific) using the wet transfer method with the transfer buffer (Thermo Fisher Scientific) and 20% methanol. […]

T1 sequence (P53671 whole entry): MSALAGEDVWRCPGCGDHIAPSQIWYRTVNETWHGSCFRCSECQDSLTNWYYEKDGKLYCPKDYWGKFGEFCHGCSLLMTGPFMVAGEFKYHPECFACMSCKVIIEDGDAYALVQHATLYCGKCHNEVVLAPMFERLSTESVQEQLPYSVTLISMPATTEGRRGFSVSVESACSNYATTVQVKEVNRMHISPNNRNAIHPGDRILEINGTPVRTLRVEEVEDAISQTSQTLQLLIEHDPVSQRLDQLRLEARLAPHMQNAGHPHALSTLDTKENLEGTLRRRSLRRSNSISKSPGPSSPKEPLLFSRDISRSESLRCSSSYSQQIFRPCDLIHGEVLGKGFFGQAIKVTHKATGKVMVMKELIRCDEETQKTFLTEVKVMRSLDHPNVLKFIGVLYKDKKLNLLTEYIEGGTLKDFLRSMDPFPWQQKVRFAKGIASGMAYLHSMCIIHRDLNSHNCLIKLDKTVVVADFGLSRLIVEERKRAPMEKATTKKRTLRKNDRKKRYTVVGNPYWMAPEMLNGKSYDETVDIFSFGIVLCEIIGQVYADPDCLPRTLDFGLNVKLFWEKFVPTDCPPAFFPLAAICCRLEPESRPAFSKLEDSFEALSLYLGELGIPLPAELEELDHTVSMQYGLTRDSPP

Cc1c(OCc2cn(CCCCC(=O)Nc3ncc(-c4cc(C(F)F)nn4-c4c(Cl)cccc4Cl)s3)nn2)cccc1N1CCC(=O)NC1=O [22b]
Dmax (EGFP–LIMK2; 10 nM PROTAC): 88.2%
Dmax (EGFP–LIMK2; 100 nM PROTAC): 97.6%
Dmax (EGFP–LIMK2; 1000 nM PROTAC): 98.5%
time to maximum degradation after PROTAC treatment (EGFP–LIMK2; EGFP–LIMK2 monitored over 72 h): approximately 60 h
EGFP–LIMK2 degradation with MLN4924 cotreatment (EGFP–LIMK2; PROTAC 10, 100 and 1000 nM + MLN4924 1 μM): no LIMK2 degradation
pCFL levels (Western blot) (phospho-Cofilin (pCFL)): no significant changes in pCFL

Source: paper PMC13184981, “Discovery and Development of a Potent LIMK2 Isoform-Specific Degrader” (ACS Chemical Biology, 2026)
